Experimental data from patent US11590117B2, “Treatment of a hematologic malignancy with 2-(4-chlorophenyl)-n-((2-(2,6-dioxopiperidin-3-yl)-1-oxoisoindolin-5-yl)methyl)-2,2-difluoroacetamide” (priority 2016, dated 2023).
Where “and” joins values, the source holds several entries; their conditions need not be identical. Equal entries are not always repeated.

Tests used:
[1] = tested on: Chronic Lymphocytic Leukemia patient samples; assay: CellTiter-Glo (CTG) cell proliferation assay, 72 hours; assay type: cell-based; conditions: Homo sapiens, Chronic Lymphocytic Leukemia patient samples (n = 3)
Protocol: Table, Table 2 and Table 3. Human normal donor PBMCs and chronic lymphoid leukemia (CLL) patient blasts were obtained from AllCells, LLC (Alameda, Calif.).
Preparation of Solutions of Test Article: Compounds were plated into black 384-well plates (Corning Inc.) to a final DMSO volume of 0.1% assuming a maximal volume of 50 μL. A 10-point dose response starting at 10 μM with a 1:3 dilution was printed in duplicate by acoustic dispense using the EDC ATS-100 platform.
Cell Proliferation Assays: The effect of Compound 1 on the proliferation/viability of the hematological cell lines (Table 1 Table, Table 2 and Table 3), THLE-2, or PBMCs was assessed after 72 hours incubation using CTG (Promega), according to manufacturer's instructions. Hematological cell lines were dispensed into compound plates by a Multidrop™ Combi Reagent Dispenser (Thermo Scientific, Waltham, Mass.) at a concentration of 0.1 to 0.3×10^6 cells per mL in a 50 μL total volume. THLE-2 cells were seeded out at 1000 cells per well in 50 μL volume and incubated for 72 hours. At 72 hours, 25 μL per well of CTG was dispensed by a Multidrop™ Combi Reagent Dispenser and adenosine triphosphate (ATP) release by viable cells was measured as relative luminescence units after 30 minutes using the Envision platform.

HNT-34 cells and PBMCs = assay: Flow cytometry caspase 3/7 assay; assay type: cell-based, human; conditions: HNT-34 cells over non-pre-activated PBMCs; 0.1 μM Compound 1; 72 hours
Protocol: Cell Apoptosis Assays: The ability of Compound 1 to induce apoptosis was assessed in selected AML cell lines and healthy PBMCs at the time points and compound concentrations indicated. For Annexin V/7-AAD readout by flow cytometry, AML cell lines were plated into flat bottom 96-well plates (BD Falcon) at a seeding density of 0.1 to 0.3×10^6 cells per mL in 200 μL complete media. Compound 1 was dispensed onto the plates and the cells were incubated for the times indicated. For frozen PBMCs, cells were thawed as previously described and plated at a seeding density of 1×10^6 cells per mL in 200 μL on Corning® BioCoat™ T-Cell Activation Anti-Human CD3 96-well plates (Corning Inc., Corning, N.Y.). Compound 1 was dispensed onto the plates and the cells were incubated for the times indicated. […] One hundred microliters of Annexin V/7-AAD buffer was added per well and the cells incubated for 15 minutes before being analyzed using the Attune Flow Cytometer (Life Technologies, Carlsbad, Calif.). For caspase 3/7 activity, the remaining 100 μL was incubated with CellEvent™ Caspase-3/7 Green ReadyProbes® Reagent (1:1000 dilution; Molecular Probes) for 15 minutes before being analyzed using the Attune Flow Cytometer. […]
The effects of Compound 1 in healthy PBMCs were also assessed. Compound 1 was added to PBMC s from one donor at time zero and assessed at 72 hours. […]

[2] = tested on: CFU-GM (granulocyte/monocyte progenitors); assay: Colony forming assay, bone marrow CD34+ cells in MethoCult; assay type: cell-based, human
Protocol: Experimental design: human bone marrow (BM) CD34+ cells were used to evaluate the potential for BM toxicity induced by Compound 1. In order to test the effects of Compound 1 on the functionality of hematopoietic progenitors, colony forming assays were done by seeding BM CD34+ cells on MethoCult medium. Cells were seeded directly in MethoCult with Compound 1 or cultured in liquid medium with Compound 1 for 2, 4, or 8 hours and then seeded in compound-free MethoCult to evaluate the effect of different exposure times. Early apoptosis induced by Compound 1 on HSC was analyzed by flow cytometry.
Results. Colony forming units (CFU) of common granulocyte/erythrocyte/monocyte/megakaryocyte (CFU-GEMM), CFU of granulocyte/monocyte (CFU-GM), burst forming unit of erythrocytes (BFU-E), and CFU of erythrocytes (CFU-E) in cultures exposed to Compound 1 or DMSO were scored on STEMvision.
Bone marrow CD34+ cells from normal donors were incubated with Compound 1 in MethoCult medium. Colony numbers for CFU-GM and BFU-E progenitors were counted using STEMVision automatic colony counting instrument and software and normalized to the colony number of the DMSO control. Results plotted as percentage of DMSO control vs concentration of Compound 1 were used to determine IC50 values. Data are shown as mean standard error of the mean of n=3 technical replicates. Donors were HD10, HD14, HD18, and HD19.
FIGS. 33A and 33B provide, colony numbers after preincubation of bone marrow CD34+ cells with Compound 1 for 4 or 8 hours, respectively, in Iscove's medium, followed by incubation in MethoCult medium without Compound 1 for 14 days. FIG. 33C provides colony numbers after incubation of bone marrow CD34+ cells in MethoCult medium in continuous presence of Compound 1 for 14 days.

Structure (SMILES): O=C1CCC(N2Cc3cc(CNC(=O)C(F)(F)c4ccc(Cl)cc4)ccc3C2=O)C(=O)N1 (centres unmarked) [Compound 1, 2-(4-chlorophenyl)-N-((2-(2,6-dioxopiperidin-3-yl)-1-oxoisoindolin-5-yl)methyl)-2,2-difluoroacetamide]
- IC50 [1]: 0.01 µM
- difference in elevation of caspase 3/7 activity (HNT-34 cells and PBMCs): ~3 fold
- Colony Number CFU-GM ([2]; Donor HD10, 7.4 nM Compound 1, replicate counts): 82 and 74
- Colony Number CFU-GM ([2]; Donor HD10, 22.2 nM Compound 1, replicate counts): 71 and 80
- Colony Number CFU-GM ([2]; Donor HD10, 67 nM Compound 1, replicate counts): 48 and 61
- Colony Number CFU-GM ([2]; Donor HD10, 200 nM Compound 1, replicate counts): 2 and 0
- Colony Number CFU-GM ([2]; Donor HD10, 600 nM Compound 1, replicate counts): 0
- Colony Number CFU-GM ([2]; Donor HD14, 7.4 nM Compound 1, replicate counts): 15 and 12
- Colony Number CFU-GM ([2]; Donor HD14, 22.2 nM Compound 1, replicate counts): 16 and 15
- Colony Number CFU-GM ([2]; Donor HD14, 67 nM Compound 1, replicate counts): 6 and 4
- Colony Number CFU-GM ([2]; Donor HD14, 200 nM Compound 1, replicate counts): 0
- Colony Number CFU-GM ([2]; Donor HD14, 600 nM Compound 1, replicate counts): 0
- Colony Number CFU-GM ([2]; Donor HD18, 7.4 nM Compound 1, replicate counts): 59 and 73
- Colony Number CFU-GM ([2]; Donor HD18, 22.2 nM Compound 1, replicate counts): 55 and 62
- Colony Number CFU-GM ([2]; Donor HD18, 67 nM Compound 1, replicate counts): 2 and 6
- Colony Number CFU-GM ([2]; Donor HD18, 200 nM Compound 1, replicate counts): 0
- Colony Number CFU-GM ([2]; Donor HD18, 600 nM Compound 1, replicate counts): 0
- Colony Number CFU-GM ([2]; Donor HD19, 7.4 nM Compound 1, replicate counts): 44 and 70
- Colony Number CFU-GM ([2]; Donor HD19, 22.2 nM Compound 1, replicate counts): 34 and 35
- Colony Number CFU-GM ([2]; Donor HD19, 67 nM Compound 1, replicate counts): 4 and 5
- Colony Number CFU-GM ([2]; Donor HD19, 200 nM Compound 1, replicate counts): 0
- Colony Number CFU-GM ([2]; Donor HD19, 600 nM Compound 1, replicate counts): 0
- IC50 ([2]; Homo sapiens, CFU-GM, CD34+ cells from four healthy donors, Compound 1 in MethoCult, read-out: IC50, inhibition of granulo-monocytic progenitors (CFU-GM)): 0.082 to 0.135 µM
